Reference: US20230158151A1 (NURIX THERAPEUTICS, INC., priority 2021, published 2023)
Read-outs that look alike come from different tables or passages of the source.

What was measured:
ITK = target: T1, ITK (Homo sapiens, UniProt Q08881); experiment: ITK Degradation HiBiT Assay; assay type: cell-based
T1 construct: Compounds provided herein were assayed in vitro with ITK HiBit cell lines; endogenous in cells; host or cells: Molt4 (ATCC CRL-1552 [sic]), monoclonal clone 1C10
T1 sequence (Q08881 1-620): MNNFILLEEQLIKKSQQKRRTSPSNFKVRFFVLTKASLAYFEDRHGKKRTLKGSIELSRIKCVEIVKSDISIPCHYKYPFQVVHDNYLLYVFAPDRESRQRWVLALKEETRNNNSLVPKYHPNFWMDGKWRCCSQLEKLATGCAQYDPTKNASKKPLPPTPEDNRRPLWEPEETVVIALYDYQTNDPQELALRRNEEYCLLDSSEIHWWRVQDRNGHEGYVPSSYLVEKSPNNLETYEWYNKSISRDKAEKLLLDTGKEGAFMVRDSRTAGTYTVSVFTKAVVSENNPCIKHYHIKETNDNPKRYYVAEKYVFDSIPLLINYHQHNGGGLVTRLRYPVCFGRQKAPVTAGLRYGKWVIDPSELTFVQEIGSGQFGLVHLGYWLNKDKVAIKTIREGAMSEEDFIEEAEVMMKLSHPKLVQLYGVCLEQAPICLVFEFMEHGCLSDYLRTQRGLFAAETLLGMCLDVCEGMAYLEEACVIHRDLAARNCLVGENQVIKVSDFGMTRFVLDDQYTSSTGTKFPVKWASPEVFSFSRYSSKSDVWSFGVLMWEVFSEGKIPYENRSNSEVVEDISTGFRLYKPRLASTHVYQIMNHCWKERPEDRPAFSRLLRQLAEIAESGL
Experimental: Compounds provided herein were assayed in vitro with ITK HiBit cell lines. Compound dilution series (11-point, 5 fold dilutions in DMSO, columns 2-12 with replicate in rows A/B, C/D, E/F, G, H at 2000× the final required concentrations were prepared in 96 well plate (Falcon, cat. no. 353077). Column 1, rows A-H were control DMSO. The 2000× solutions ranged from 2 mM to 1.024 nM (final assay concentration range 1 μM to […]). The 2000× solutions were added to cells in […], for a final DMSO concentration of 0.5% and final assay compound concentration of 1×. For the cells, C-terminal HiBiT-tagged Molt4 cells (ATCC CRL-1552, monoclonal cell line clone 1C10) were plated at 1×10^6 cells/mL, 100 μL/well ([…]) in complete RPMI (10% FBS, 1% L-glutamine). The cells were incubated with compound 32 and compound 30 for 4 hrs at 32° C./6% CO2.
Following incubation, 100 μL of complete Nano-Glo HiBiT Lytic Detection Reagent (Nano-Glo HiBiT Lytic Buffer with 1:50 Nano-Glo HiBiT Lytic Substrate and 1:100 LgBiT Protein; Promega cat. no. N3O40) was added. Cells were further incubated for 10 min at room temperature (RT). Luminescence units (LU) were read on an EnVision plate reader (Perkin Elmer, 0.1 sec per well). Percent ITK remaining per sample was calculated as follows: […]
Using Graphpad Prism, % ITK remaining values were plotted as a function of compound concentration. To determine DC50 and Dmax values, resulting curves were fit to the Prism curve-fitting equation “log(inhibitor) vs response−Variable slope (four parameters)” (reported best fit value IC50 used as DC50). ITK was measured with antibody-based MSD (Meso-Scale Discovery) assays shown below.

[1] = Mouse PK Analysis (plasma LC/MS/MS, noncompartmental PK parameters); assay type: in vivo; parameters: AUC(0-t): concentration or dose not given beside the values; details: mouse; mice, oral administration, plasma
Experimental: Compounds 30 and 29 were administered to mice orally. After 6 hours or 24 hours, splenocytes cells were harvested. ITK was evaluated by Western blotting. Plasma concentrations were determined by LC/MS/MS. Plasma samples were protein precipitated by addition of 100 μl of acetonitrile containing 50 ng/ml of internal standard. The resulting mixture was vortexed and centrifuged at 4000 RPM for 5 minutes. An aliquot of the resultant supernatant (75 μl) was added to 75 μl of 0.1% formic acid in water to constitute the final sample for injection. Samples were injected on a Shimadzu Exion LC Binary Gradient AD Pump HLPC system connected to a Sciex QTRAP 6500+ mass spectrometer. Five μl of sample was injected onto a Waters Acquity UPLC BEH C18 column 130A (2.1×30 mm, […]) at 40° C. utilizing a flow rate of 700 μl/minute. Mobile Phase A was 0.1% formic acid in water and mobile phase B was 0.1% formic acid in acetonitrile. A linear gradient of 15-95% B over 1.0 minute was used. The mass spectrometer was operated in positive ion electrospray mode with multiple reaction monitoring for maximum sensitivity. Sciex Analyst software (version 1.6.3) was used for LC/MS/MS instrument control and acquisition. Compound concentration was determined against a standard curve of internal standard versus compound peak area ratio. Noncompartmental PK parameters were determined using Phoenix 32 software (version 8.2.0.4383) from Certara. Plasma concentrations from the LC/MS/MS analyses, dose, route of administration, and desired units were utilized for PK parameter calculations. […] FIG. 3C provides the concentration over time of compound 30 following in vivo oral administration in the 6 hour and 24 hour assays.
Cmax, Tmax and AUClast were all calculated using a WinNonLin Phoenix 64 v 8.2.0.4383. Using non-compartmental analysis, Tmax, Cmax and AUClast were determined as follows:
Tmax—Time of maximum observed concentration. Cmax—Maximum observed concentration, occurring at time Tmax, as defined above. AUClast—Area under the curve from the time of dosing to the time of the last measurable (positive) concentration (Tlast).

[2] = MOLT-4, C-terminal HiBiT-tagged Molt4 cells, 4 hrs incubation, read-out: HiBiT DMax (%)
[3] = C-terminal HiBiT-tagged Molt4 cells, 4 hrs incubation

Row | Dmax (ITK; [2]) [%] | AUC(0-t) [1] [µM·h] | Cmax [1] [nM] | Tmax [1] [h] | Dmax (ITK; ITK degradation in HiBiT cell line, FIG. 1, read-out: Dmax values (FIG. 1)) [%] | DC50 (ITK; [3]) [nM] | Structure (SMILES)
1 | 87 | 36.5 | 7110 | 6 |  |  | CC1(C)CCc2c(-c3cc4ccc(C(=O)N5CCN(CC6CCN(c7ccc(C8CCC(=O)NC8=O)cn7)CC6)CC5)cc4[nH]3)n[nH]c2C1 (stereo not shown) [Compound 26, 3-(6-(4-((4-(2-(6,6-dimethyl-4,5,6,7-tetrahydro-1H-indazol-3-yl)-1H-indole-6-carbonyl)piperazin-1-yl)methyl)piperidin-1-yl)pyridin-3-yl)piperidine-2,6-dione]
2 | 76 | 1.98 | 694 | 3.3 |  |  | C[C@@H](C(=O)N(C)c1ccc2cc(-c3n[nH]c4c3C[C@@H]3C(F)(F)[C@]3(C)C4)[nH]c2c1)N1CCN(CC2CCN(c3ccc(N4CCC(=O)NC4=O)cn3)CC2)CC1 [Compound 29, (S)—N-(2-((4aS,5aR)-5,5-difluoro-5a-methyl-1,4,4a,5,5a,6-hexahydrocyclopropa[f]indazol-3-yl)-1H-indol-6-yl)-2-(4-((1-(5-(2,4-dioxotetrahydropyrimidin-1(2H)-yl)pyridin-2-yl)piperidin-4-yl)methyl)piperazin-1-yl)-N-methylpropanamide]
3 | 89 | 22.7 | 1620 | 6 | 90 to 100 |  | C[C@@H](C(=O)N(C)c1ccc2cc(-c3n[nH]c4c3CCC(C)(C)C4)[nH]c2c1)N1CCN(CC2CCN(c3ccc(C4CCC(=O)NC4=O)cn3)CC2)CC1 (stereo partly drawn) [Compound 32, (2S)—N-(2-(6,6-dimethyl-4,5,6,7-tetrahydro-1H-indazol-3-yl)-1H-indol-6-yl)-2-(4-((1-(5-(2,6-dioxopiperidin-3-yl)pyridin-2-yl)piperidin-4-yl)methyl)piperazin-1-yl)-N-methylpropanamide]
4 | 82 | 3.9 | 300 | 6 |  | 0.09 | CC1(C)CCc2c(-c3cc4ccc(C(=O)N5CCC(CN6CCC(c7ccc(C8CCC(=O)NC8=O)cc7)CC6)CC5)cc4[nH]3)n[nH]c2C1 (stereo not shown) [Compound 39, 3-(4-(1-((1-(2-(6,6-dimethyl-4,5,6,7-tetrahydro-1H-indazol-3-yl)-1H-indole-6-carbonyl)piperidin-4-yl)methyl)piperidin-4-yl)phenyl)piperidine-2,6-dione]
5 | 79 | 72 | 5400 | 2 |  | 2.6 | CC1(C)CCc2c(-c3cc4ccc(C(=O)N5CCC(CN6CCN(c7ccc(C8CCC(=O)NC8=O)cc7)CC6)CC5)cc4[nH]3)n[nH]c2C1 (stereo not shown) [Compound 37, 3-(4-(4-((1-(2-(6,6-dimethyl-4,5,6,7-tetrahydro-1H-indazol-3-yl)-1H-indole-6-carbonyl)piperidin-4-yl)methyl)piperazin-1-yl)phenyl)piperidine-2,6-dione]
6 | 92 | 1.43 | 610 | 6 |  | 0.6 | CC1(C)CCc2c(-c3cc4ccc(N5CCC6(CCN(CC7CCN(c8ccc(C9CCC(=O)NC9=O)cn8)CC7)CC6)C5=O)cc4[nH]3)n[nH]c2C1 (stereo not shown) [Compound 24, 3-(6-(4-((2-(2-(6,6-dimethyl-4,5,6,7-tetrahydro-1H-indazol-3-yl)-1H-indol-6-yl)-1-oxo-2,8-diazaspiro[4.5]decan-8-yl)methyl)piperidin-1-yl)pyridin-3-yl)piperidine-2,6-dione]
7 | 74 | 150 | 11000 | 3.3 |  | 1.5 | CC1(C)CCc2c(-c3cc4ccc(C(=O)N5CCN(CC6CCN(c7ccc(C8CCC(=O)NC8=O)cc7)CC6)CC5)cc4[nH]3)n[nH]c2C1 (stereo not shown) [Compound 38, 3-(4-(4-((4-(2-(6,6-dimethyl-4,5,6,7-tetrahydro-1H-indazol-3-yl)-1H-indole-6-carbonyl)piperazin-1-yl)methyl)piperidin-1-yl)phenyl)piperidine-2,6-dione]

Further lines, the molecule ahead of its results:

Row | Structure (SMILES) | Dmax (ITK; [2]) [%] | AUC(0-t) [1] [µM·h] | Cmax [1] [nM] | Tmax [1] [h] | Dmax (ITK; ITK degradation in HiBiT cell line, FIG. 1, read-out: Dmax values (FIG. 1)) [%] | DC50 (ITK; [3]) [nM]
8 | C[C@@]12Cc3[nH]nc(C(=O)Nc4cnn(CC5CN(C(=O)C6CN(c7ccc(C8CCC(=O)NC8=O)cn7)C6)C5)c4)c3C[C@@H]1C2(F)F (stereo partly drawn) [Compound 23, (4aS,5aR)—N-(1-((1-(1-(5-(2,6-dioxopiperidin-3-yl)pyridin-2-yl)azetidine-3-carbonyl)azetidin-3-yl)methyl)-1H-pyrazol-4-yl)-5,5-difluoro-5a-methyl-1,4,4a,5,5a,6-hexahydrocyclopropa[f]indazole-3-carboxamide] | 85 |  |  |  |  | 
9 | C[C@@]12Cc3[nH]nc(C(=O)Nc4cnn(CC5CN(C(=O)C6CCN(c7ccc(C8CCC(=O)NC8=O)cn7)CC6)C5)c4)c3C[C@@H]1C2(F)F (stereo partly drawn) [Compound 22, (4aS,5aR)—N-(1-((1-(1-(5-(2,6-dioxopiperidin-3-yl)pyridin-2-yl)piperidine-4-carbonyl)azetidin-3-yl)methyl)-1H-pyrazol-4-yl)-5,5-difluoro-5a-methyl-1,4,4a,5,5a,6-hexahydrocyclopropa[f]indazole-3-carboxamide] | 90 |  |  |  |  | 
10 | CN(C(=O)CCC1CCN(c2ccc(C3CCC(=O)NC3=O)cn2)CC1)c1ccc2cc(-c3n[nH]c4c3C[C@@H]3C(F)(F)[C@]3(C)C4)[nH]c2c1 (stereo partly drawn) [Compound 4, N-(2-((4aS,5aR)-5,5-difluoro-5a-methyl-1,4,4a,5,5a,6-hexahydrocyclopropa[f]indazol-3-yl)-1H-indol-6-yl)-3-(1-(5-(2,6-dioxopiperidin-3-yl)pyridin-2-yl)piperidin-4-yl)-N-methylpropanamide] | 82 | 7.07 | 2430 | 1 |  | 
11 | CN(C(=O)CC1CCN(CC2CCN(c3ccc(C4CCC(=O)NC4=O)cn3)CC2)CC1)c1ccc2cc(-c3n[nH]c4c3C[C@@H]3C(F)(F)[C@]3(C)C4)[nH]c2c1 (stereo partly drawn) [Compound 6, N-(2-((4aS,5aR)-5,5-difluoro-5a-methyl-1,4,4a,5,5a,6-hexahydrocyclopropa[f]indazol-3-yl)-1H-indol-6-yl)-2-(1-((1-(5-(2,6-dioxopiperidin-3-yl)pyridin-2-yl)piperidin-4-yl)methyl)piperidin-4-yl)-N-methylacetamide] | 85 |  |  |  |  | 
